Patent US9192605B2, “Compositions and methods for treating parkinson's disease” (priority 2009, dated 2015)
Like-named read-outs stand apart in the source and are kept apart here.

Tests used:
[1] = for Freezing during “on” score / Motor Fluctuations (presence) score / Motor Fluctuations (severity) score / Rise from Chair score / ADL Speech score / Alternating Movements score / Changing position, i.e. turning in bed score / Dressing score / Dyskinesias (presence) score / Dyskinesias (severity) score / Feeding score / Gait score / Handwriting score / Hygiene score / Postural Tremor score / Rigidity score / Speech score / Swallowing score / Walking score / Rest Tremor score: 40 micrograms haloperidol/day oral, one patient; for Freezing during “on” score / Motor Fluctuations (presence) score / Motor Fluctuations (severity) score / Rise from Chair score: Baseline Time 1 score 0; for ADL Speech score / Alternating Movements score / Changing position, i.e. turning in bed score / Dressing score / Dyskinesias (presence) score / Dyskinesias (severity) score / Feeding score / Gait score / Handwriting score / Hygiene score / Postural Tremor score / Rigidity score / Speech score / Swallowing score / Walking score: Baseline Time 1 score 1; for Rest Tremor score: Baseline Time 1 score 2
[2] = tested on: rats; assay: locomotion, exploration and grooming of rats given low-dose haloperidol; assay type: in vivo, rat
[3] = clinical use as antipsychotic; cited from earlier work
[4] = biological target: dopamine D2 receptors (Homo sapiens, UniProt P14416); conditions: PET with [11C]raclopride, over 24 hours, schizophrenia patients and volunteers; cited from earlier work
[5] = biological target: human cloned dopamine D2 receptors (Homo sapiens, UniProt P14416); conditions: cited from earlier work

Compound: O=C(CCCN1CCC(O)(c2ccc(Cl)cc2)CC1)c1ccc(F)cc1 [haloperidol]
- Freezing during “on” score ([1]; Score Time 2): 0
- Motor Fluctuations (presence) score ([1]; Score Time 2): 0
- Motor Fluctuations (severity) score ([1]; Score Time 2): 0
- Rise from Chair score ([1]; Score Time 2): 0
- ADL Speech score ([1]; Score Time 2): 0
- Alternating Movements score ([1]; Score Time 2): 0
- Changing position, i.e. turning in bed score ([1]; Score Time 2): 1
- Dressing score ([1]; Score Time 2): 1
- Dyskinesias (presence) score ([1]; Score Time 2): 0
- Dyskinesias (severity) score ([1]; Score Time 2): 0
- Feeding score ([1]; Score Time 2): 1
- Gait score ([1]; Score Time 2): 0
- Handwriting score ([1]; Score Time 2): 1
- Hygiene score ([1]; Score Time 2): 1
- Postural Tremor score ([1]; Score Time 2): 1
- Rigidity score ([1]; Score Time 2): 2
- Speech score ([1]; Score Time 2): 0
- Swallowing score ([1]; Score Time 2): 0
- Walking score ([1]; Score Time 2): 0
- Rest Tremor score ([1]; Score Time 2): 2
- Freezing during “on” score ([1]; Score Time 3): 0
- Motor Fluctuations (presence) score ([1]; Score Time 3): 0
- Motor Fluctuations (severity) score ([1]; Score Time 3): 0
- Rise from Chair score ([1]; Score Time 3): 0
- ADL Speech score ([1]; Score Time 3): 0
- Alternating Movements score ([1]; Score Time 3): 1
- Changing position, i.e. turning in bed score ([1]; Score Time 3): 1
- Dressing score ([1]; Score Time 3): 1
- Dyskinesias (presence) score ([1]; Score Time 3): 0
- Dyskinesias (severity) score ([1]; Score Time 3): 0
- Feeding score ([1]; Score Time 3): 1
- Gait score ([1]; Score Time 3): 1
- Handwriting score ([1]; Score Time 3): 1
- Hygiene score ([1]; Score Time 3): 1
- Postural Tremor score ([1]; Score Time 3): 1
- Rigidity score ([1]; Score Time 3): 2
- Speech score ([1]; Score Time 3): 0
- Swallowing score ([1]; Score Time 3): 0
- Walking score ([1]; Score Time 3): 0
- Rest Tremor score ([1]; Score Time 3): 2
- clinical observation: involuntary movements ([1]; Time 1 or Time 2, apart from resting tremor of right hand present at all times): No involuntary movements noted
- overall conclusion ([1]; baseline to Time 1 and 2, most noticeable walking and overall presentation): A slight improvement from baseline to Time 1 and 2 on certain markers
- clinical observation: rigidity on palpation ([1]; elbow joint, no rigidity on left, 40 micrograms/day oral): Slight increase in rigidity on palpation of elbow joint on right side
- clinical observation: appearance, facial features ([1]; time 1 and 2 vs baseline, 40 micrograms/day oral): appeared brighter, less flat facial features
- behaviour of the animals ([2]; 0.0025 mg/kg/day, 5 days): heightened locomotion, active exploration and good grooming
- behaviour of the animals ([2]; 0.005 mg/kg, on days 3-5 or upon stopping the haloperidol): spontaneously increased locomotion and well-being
- behaviour of the animals ([2]; haloperidol 0.03 mg/kg down to 0.0025 mg/kg): heightened locomotion and active exploration

Compound: Cc1cc2c(s1)Nc1ccccc1N=C2N1CCN(C)CC1 [olanzapine]
- extrapyramidal signs (EPS) in patients [3]: dose-dependent incidence of extrapyramidal signs

Compound: OCCOCCN1CCN(C2=Nc3ccccc3Sc3ccccc32)CC1 [quetiapine]
- time course of human striatum D2 occupancy [4]: rapidly falls off within 24 hours
- extrapyramidal signs (EPS) in patients [3]: essentially no EPS occurs

Compound: [^3H]quetiapine
- rate of release from D2 receptors relative to [3H]haloperidol or [3H]chlorpromazine [5]: at least one hundred times faster
